For one series, the system named is MRC5. Nature of the series: Cytotoxicity against human MRC5 cells at <50 ug/ml. The class given is cell-based.
Series [1] relates to Pseudomonas aeruginosa. Nature of the series: microbe, parasite or virus in culture. The settings on record: ATCC 27853.
Description: Antibacterial activity against Pseudomonas aeruginosa ATCC 27853 after overnight incubation by photometric method
A further series deals with Streptococcus agalactiae. Nature of the series: Antibacterial activity against Streptococcus agalactiae group B ATCC 12386 after overnight incubation by photometric method. The class given is functional.
The test system of the next series is Staphylococcus aureus. Nature of the series: Antibacterial activity against Staphylococcus aureus ATCC 25923 after overnight incubation by photometric method. The class given is functional.
Series [2] relates to Staphylococcus epidermidis. Nature of the series: Inhibition of biofilm formation in Staphylococcus epidermidis at 50 ug/ml after overnight incubation by crystal violet staining based method. The class given is functional.
In series [3] the test system is Escherichia coli. Nature of the series: microbe, parasite or virus in culture. Particulars: ATCC 25922.
Description: Antibacterial activity against Escherichia coli ATCC 25922 after overnight incubation by photometric method
Series [4] relates to Enterococcus faecalis. Nature of the series: Antibacterial activity against Enterococcus faecalis ATCC 29212 after overnight incubation by photometric method. The class given is functional.
Series [5] has as its system Enterococcus faecalis. Nature of the series: Antibacterial activity against Enterococcus faecalis ATCC 29212 at 50 ug/ml after overnight incubation by photometric method. The class given is functional.
The subject of series [6] is Pseudomonas aeruginosa. Nature of the series: Antibacterial activity against Pseudomonas aeruginosa ATCC 27853 at 50 ug/ml after overnight incubation by photometric method. The class given is functional.
In series [7] the test system is Escherichia coli. Nature of the series: Antibacterial activity against Escherichia coli ATCC 25922 at 50 ug/ml after overnight incubation by photometric method. The class given is functional.

Active and inactive are the calls of the source. The rule behind the calls is not given here.

Turning to `Cl.N=C(N)NCCc1cn(Cc2ccc3ccccc3c2)nn1`, the Activity result with MRC5 was “Non-Toxic”.

On to `CC(C)(C)c1cc(Cn2cc(CCNC(=N)N)nn2)cc(C(C)(C)C)c1.Cl`, for which the MIC came out at 40 µg/mL against Pseudomonas aeruginosa [1]; 10 µg/mL against Streptococcus agalactiae; 20 µg/mL with Staphylococcus aureus; 50 µg/mL in the series on Escherichia coli [3]; 40 µg/mL with Enterococcus faecalis [4]. In series [2], the “biofilm formation inhibition (active/not active)” value is “Active”. In addition, the Activity result in the series on MRC5 was “Non-Toxic”.

With `CC(C)(C)c1cc(-n2cc(CCCNC(=N)N)nn2)cc(C(C)(C)C)c1.Cl`, the MIC against Pseudomonas aeruginosa [1] came to 16 µg/mL; with Streptococcus agalactiae it was 4 µg/mL; against Staphylococcus aureus, 4 µg/mL; against Escherichia coli [3], 16 µg/mL; against Enterococcus faecalis [4], 16 µg/mL.

Turning to `Cl.NCCc1cn(Cc2ccc3ccccc3c2)nn1`, in the series on MRC5, the Activity result is reported as “Non-Toxic”.

Take `CC(C)(C)c1cc(Cn2cc(CCN)nn2)cc(C(C)(C)C)c1.Cl`: the MIC against Pseudomonas aeruginosa [1] came out at 50 µg/mL; with Streptococcus agalactiae, 40 µg/mL; in the series on Staphylococcus aureus it was 40 µg/mL; in the series on Escherichia coli [3], 40 µg/mL. The “biofilm formation inhibition (active/not active)” value in [2] is “Active”. In addition, the result in the series with Enterococcus faecalis [5] was inactive. Besides, in the series with MRC5, the Activity result is listed as “Non-Toxic”.

Consider `CN(C)CCCc1cn(Cc2ccccc2)nn1.Cl`, for which the Activity result with MRC5 is on record as “Non-Toxic”.

Consider GENTAMICIN, for which the results for the MIC with Streptococcus agalactiae, in the series on Staphylococcus aureus and in the series with Enterococcus faecalis [4] were 4 µg/mL, 0.13 µg/mL and 10 µg/mL, respectively.

Consider `Cl.NCCCc1cn(Cc2ccc3ccccc3c2)nn1`, for which the Activity entry with MRC5 is recorded as “Non-Toxic”.

Consider `CC(C)(C)c1cc(Cn2cc(CCCN)nn2)cc(C(C)(C)C)c1.Cl`, for which the “biofilm formation inhibition (active/not active)” value in series [2] is “inactive”. The Activity entry in the series on MRC5 is listed as “Non-Toxic”.

Regarding `Cl.N=C(N)NCCCc1cn(Cc2cc(C(F)(F)F)cc(C(F)(F)F)c2)nn1`, the Activity entry with MRC5 is “Non-Toxic”.

In the case of `CCCCCCCOc1ccc(-n2cc(CCCN)nn2)cc1.Cl`, the MIC against Pseudomonas aeruginosa [1] worked out at 16 µg/mL; against Streptococcus agalactiae, 8 µg/mL; with Staphylococcus aureus it was 16 µg/mL; against Escherichia coli [3], 8 µg/mL; in the series with Enterococcus faecalis [4], 16 µg/mL.

Take `Cl.NCCCc1cn(Cc2cc(C(F)(F)F)cc(C(F)(F)F)c2)nn1`: the Activity result with MRC5 is “Non-Toxic”.

For the molecule `Cl.NCCc1cn(Cc2ccccc2)nn1`, in the series with MRC5, the Activity result is given as “Non-Toxic”.

Turning to `CN(C)CCc1cn(Cc2cc(C(C)(C)C)cc(C(C)(C)C)c2)nn1.Cl`, the “biofilm formation inhibition (active/not active)” value in series [2] was “Active”. In the series on MRC5, the Activity entry is “Non-Toxic”.

With `CN(C)CCCc1cn(Cc2ccc3ccccc3c2)nn1.Cl`, the Activity entry in the series with MRC5 is given as “Non-Toxic”.

With `CN(C)CCc1cn(Cc2cc(C(F)(F)F)cc(C(F)(F)F)c2)nn1.Cl`, the Activity entry in the series on MRC5 is recorded as “Non-Toxic”.

Consider `CN(C)CCCc1cn(Cc2cc(C(C)(C)C)cc(C(C)(C)C)c2)nn1.Cl`, for which the result in the series with Pseudomonas aeruginosa [6], in the series on Enterococcus faecalis [5] and in the series with Escherichia coli [7] was inactive. Also, the figures for the MIC in the series on Streptococcus agalactiae and in the series with Staphylococcus aureus were 50 µg/mL and 40 µg/mL, respectively. Also, the “biofilm formation inhibition (active/not active)” value in series [2] is “Active”. In addition, the Activity entry in the series on MRC5 is on record as “Non-Toxic”.

As for `CC(C)(C)c1cc(-n2cc(CCCN)nn2)cc(C(C)(C)C)c1.Cl`, the MIC turned out to be 32 µg/mL against Pseudomonas aeruginosa [1]; 16 µg/mL with Streptococcus agalactiae; 16 µg/mL with Staphylococcus aureus; 16 µg/mL in the series on Escherichia coli [3]; 32 µg/mL against Enterococcus faecalis [4].

As to `CN(C)CCCc1cn(Cc2cc(C(F)(F)F)cc(C(F)(F)F)c2)nn1.Cl`, the Activity entry in the series on MRC5 is reported as “Non-Toxic”.

With `Cl.NCCCc1cn(Cc2ccccc2)nn1`, the Activity entry in the series on MRC5 is reported as “Non-Toxic”.

Turning to `Cl.N=C(N)NCCc1cn(Cc2ccccc2)nn1`, in the series with MRC5, the Activity result is “Non-Toxic”.

Regarding `CN(C)CCc1cn(Cc2ccccc2)nn1.Cl`, the Activity entry with MRC5 is “Non-Toxic”.

For `Cl.N=C(N)NCCc1cn(Cc2cc(C(F)(F)F)cc(C(F)(F)F)c2)nn1`, the Activity result in the series on MRC5 was “Non-Toxic”.

Turning to `CC(C)(C)c1cc(Cn2cc(CCCNC(=N)N)nn2)cc(C(C)(C)C)c1.Cl`, the MIC with Pseudomonas aeruginosa [1] came out at 40 µg/mL; against Streptococcus agalactiae it was 10 µg/mL; in the series with Staphylococcus aureus, 10 µg/mL; in the series with Escherichia coli [3] it was 40 µg/mL; with Enterococcus faecalis [4], 40 µg/mL. Further, in series [2], the “biofilm formation inhibition (active/not active)” value is “Active”. The Activity result with MRC5 is “Non-Toxic”.

In the case of `Cl.NCCc1cn(Cc2cc(C(F)(F)F)cc(C(F)(F)F)c2)nn1`, in the series with MRC5, the Activity entry is “Non-Toxic”.

In the case of `CN(C)CCc1cn(Cc2ccc3ccccc3c2)nn1.Cl`, the Activity result with MRC5 is “Non-Toxic”.

On to `Cl.N=C(N)NCCCc1cn(Cc2ccccc2)nn1`, for which, in the series with MRC5, the Activity entry was “Non-Toxic”.

On to `Cl.N=C(N)NCCCc1cn(Cc2ccc3ccccc3c2)nn1`, for which, in series [2], the “biofilm formation inhibition (active/not active)” value was “Active”. Also, in the series with MRC5, the Activity entry is “Non-Toxic”.

Consider `CCCCCCCOc1ccc(-n2cc(CCCNC(=N)N)nn2)cc1.Cl`, for which the MIC in the series on Pseudomonas aeruginosa [1] is 8 µg/mL; in the series with Streptococcus agalactiae, 4 µg/mL; against Staphylococcus aureus, 4 µg/mL; against Escherichia coli [3] it was 8 µg/mL; against Enterococcus faecalis [4], 8 µg/mL.

The values above are taken from ChEMBL document CHEMBL3994659, “Synthesis and antimicrobial evaluation of cationic low molecular weight amphipathic 1,2,3-triazoles” (Bioorg Med Chem Lett, 2017).
